Here are results for one compound from article PMC4110944, “Probing SH2-domains using Inhibitor Affinity Purification (IAP)” (Proteome Science, 2014).

The target of test [1] is T1, PIK3R1 (Homo sapiens, UniProt P27986).
T1 construct: Dose response pull-down experiments were accomplished in Colo205 lysates; endogenous in cells; host or cells: Colo205 cell lysate
Put plainly: Dose response competition pull-down with free compound 1 against immobilized probe 1 in Colo205 lysate. In kind it is binding. The following applies: Colo205 cell lysate, free compound 1 competing with immobilized probe 1. As for the experimental part: (§1) A competitive binding experiment was performed to validate the results obtained under pervanadate-depletion conditions (Additional file 4). Dose response pull-down experiments were accomplished in Colo205 lysates with increasing concentrations of the free compound 1 that competes with the immobilized probe 1 for SH2 domain binding (Additional file 5). […] Additionally, these findings underscore the results of the pervanadate depletion experiments that indicate that the regulatory PI3 kinase subunits specifically interact with probe 1 via an SH2 domain. The regulatory PI3K subunits PI3KR1 and PI3KR2 contain a C-terminal and an N-terminal SH2 domain. The real IC50 values are likely smaller than the measured values for PI3KR1 and PI3KR2, since it is impossible to distinguish whether one of the two domains or both simultaneously interact with equal affinity with probe 1[35].
(§2) Figure 5 Dose-response curves. Pulldown experiments were conducted using probe 1 with Colo205 cell lysate and increasing concentrations of the free compound 1.
(§3) SH2 probe pulldowns were performed as described previously. […]
(§4) Raw MS data were processed by MaxQuant (v1.4.0.5) for peak detection and quantification […]

The target of test [2] is T2, PIK3R2 (Homo sapiens, UniProt O00459).
T2 construct: Dose response pull-down experiments were accomplished in Colo205 lysates; endogenous in cells; host or cells: Colo205 cell lysate
The test is described as above. In kind it is binding. The following applies: Colo205 cell lysate, free compound 1 competing with immobilized probe 1. As for the experimental part:
as §1, §2, §3, §4

The subject of test [3] is regulatory PI3K subunits. The description is as above. The test is classed as binding, human. The following applies: Colo205 lysates, competition with immobilized probe 1; read-out: IC50 values for the captured regulatory PI3K subunits. The protocol: as §1, §3
Test [4] deals with SH2 proteins. Put plainly: Dose response competition pull-down in Colo205 lysate. In kind it is binding, human. The settings on record: increasing free compound 1. The protocol: as §1, §3
The target in test [5] is T3, tubulin beta chain (TBB) (Homo sapiens, UniProt P07437).
T3 construct: Dose response pull-down experiments were accomplished in Colo205 lysates; endogenous in cells; host or cells: Colo205 cell lysate
Described as above. The test is classed as binding. The settings on record: increasing free compound 1. As for the experimental part:
as §1, §3

In the case of `CCCCCN(CCOCCOCCN)C(=O)[C@H](CCC(=O)O)NC(=O)[C@H](Cc1ccc(C(F)(F)P(=O)(O)O)cc1)NC(C)=O` [probe 1], the IC50 in test [1] is 10.3 µM; in test [2] it was 22.6 µM; in test [3], 10 to 23 µM. The “dose dependence of captured SH2 proteins in the competition experiment” value in test [4] was “dose dependent decrease”. For the same compound, the “dose dependence of tubulin beta chain (TBB) in the competition experiment” value in test [5] is reported as “do not show dose dependent decrease”.
